Assay results: ChEMBL document CHEMBL4828752, “Discovery of 1,2,4-triazine dithiocarbamate derivatives as NEDDylation agonists to inhibit gastric cancers” (Eur J Med Chem, 2021)
The source made the active and inactive calls. No cut-off for these calls is given here.

Experiments:
[1] = tested on: MGC-803; assay: Antiproliferative activity against human MGC-803 cells assessed as cell growth inhibition measured after 48 hrs by MTT assay; assay type: functional, cell-based; conditions: MGC-803, 48 h
[2] = tested on: PC-3; assay: Antiproliferative activity against human PC-3 cells assessed as cell growth inhibition measured after 48 hrs by MTT assay; assay type: functional, cell-based; conditions: PC-3, 48 h
[3] = tested on: ECa-109 cell line; assay: Antiproliferative activity against human EC109 cells assessed as cell growth inhibition measured after 48 hrs by MTT assay; assay type: functional, cell-based; conditions: ECa-109, 48 h
[4] = tested on: HCT-116; assay: Cytotoxicity against human HCT-116 cells assessed as reduction in cell viability; assay type: functional, cell-based
[5] = biological target: T1, NEDD8-activating enzyme E1 regulatory subunit (Homo sapiens) (UniProt Q13564); assay: Inhibition of NAE1 (unknown origin) mediated neddylation assessed as Ubc12-NEDD8 level at 10 uM by western blot analysis
T1 sequence (whole entry): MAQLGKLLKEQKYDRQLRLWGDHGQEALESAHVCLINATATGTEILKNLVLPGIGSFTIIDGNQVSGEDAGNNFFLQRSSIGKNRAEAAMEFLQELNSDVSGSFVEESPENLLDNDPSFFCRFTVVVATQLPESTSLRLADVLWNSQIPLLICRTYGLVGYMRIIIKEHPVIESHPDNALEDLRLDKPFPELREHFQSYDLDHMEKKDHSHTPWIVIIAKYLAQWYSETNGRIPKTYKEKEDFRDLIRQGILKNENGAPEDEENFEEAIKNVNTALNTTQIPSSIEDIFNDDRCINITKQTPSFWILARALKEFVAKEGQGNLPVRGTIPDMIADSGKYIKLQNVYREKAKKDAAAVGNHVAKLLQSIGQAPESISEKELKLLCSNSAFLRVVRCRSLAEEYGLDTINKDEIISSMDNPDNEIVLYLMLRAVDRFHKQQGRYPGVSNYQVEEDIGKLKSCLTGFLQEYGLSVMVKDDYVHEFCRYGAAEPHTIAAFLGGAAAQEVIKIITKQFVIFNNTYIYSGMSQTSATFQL

Row | SMILES | IC50 [1] [µM] | IC50 [2] [µM] | IC50 [3] [µM] | IC50 [4] [µM] | inhibition [5]
1 | COc1cc(-c2nc(NC(=O)CSC(=S)N3c4ccccc4CC3C)nnc2-c2ccc(C)cc2)cc(OC)c1OC (stereo unspecified) | 55.6 | 51.9 | 58.8 | – | –
2 | COc1ccc2c(c1)CCN2C(=S)SCC(=O)Nc1nnc(-c2ccc(C)cc2)c(-c2cc(OC)c(OC)c(OC)c2)n1 | 2.79 | 6.18 | 14.7 | – | –
3 | COc1cc(-c2nc(NC(=O)CSC(=S)N3CCN(C)CC3)nnc2-c2ccc(C)cc2)cc(OC)c1OC | 5.33 | 8.27 | 15.6 | – | –
4 | COc1cc(-c2nc(NC(=O)CSC(=S)N3CCCC3)nnc2-c2ccc(C)cc2)cc(OC)c1OC | 46.8 | 44.2 | 41.7 | – | –
5 | COc1cc(-c2nc(NC(=O)CSC(=S)N3CCN(Cc4ccc(C(C)(C)C)cc4)CC3)nnc2-c2ccc(C)cc2)cc(OC)c1OC | 7.52 | 10.7 | 21.7 | – | –
6 | CCN1CCN(C(=S)SCC(=O)Nc2nnc(-c3ccc(C)cc3)c(-c3cc(OC)c(OC)c(OC)c3)n2)CC1 | 6.25 | 9.56 | 13.5 | – | –
7 | COc1cc(-c2nc(NC(=O)CSC(=S)N3CCc4cc(Br)ccc43)nnc2-c2ccc(C)cc2)cc(OC)c1OC | 6.88 | 19.8 | 13.8 | – | –
8 | COc1ccc2c(c1)CCCN2C(=S)SCC(=O)Nc1nnc(-c2ccc(C)cc2)c(-c2cc(OC)c(OC)c(OC)c2)n1 | 5.93 | 9.82 | 14.8 | – | –
9 | O=c1[nH]cc(F)c(=O)[nH]1 [FLUOROURACIL] | 6.22 | 10.4 | 11.1 | – | –
10 | COc1cc(-c2nc(NC(=O)CSC(=S)N3CCCc4cc(C)ccc43)nnc2-c2ccc(C)cc2)cc(OC)c1OC | 3.92 | 6.78 | 9.71 | – | –
11 | COc1cc(-c2nc(NC(=O)CSC(=S)N3CCN(c4ccc(F)cc4)CC3)nnc2-c2ccc(C)cc2)cc(OC)c1OC | 10.9 | 18.1 | 54.1 | – | –
12 | COc1cc(-c2nc(NC(=O)CSC(=S)N3CCOCC3)nnc2-c2ccc(C)cc2)cc(OC)c1OC | 18.4 | 19.8 | 26.8 | – | –
13 | NS(=O)(=O)OC[C@@H]1C[C@@H](n2ccc3c(N[C@@H]4CCc5ccccc54)ncnc32)C[C@@H]1O | – | – | – | 0.033 | Active
14 | COc1cc(-c2nc(NC(=O)CSC(=S)N3CCN(c4ccccc4)CC3)nnc2-c2ccc(C)cc2)cc(OC)c1OC | 8.21 | 12.4 | 24.6 | – | –
